One test concerns the target T1, thromboxane synthetase (Homo sapiens, UniProt P24557).
T1 construct: crude microsomal preparation of thromboxane synthetase from lysed human platelets; from tissue; host or cells: lysed human platelets, crude microsomal preparation
T1 sequence (P24557 1-533): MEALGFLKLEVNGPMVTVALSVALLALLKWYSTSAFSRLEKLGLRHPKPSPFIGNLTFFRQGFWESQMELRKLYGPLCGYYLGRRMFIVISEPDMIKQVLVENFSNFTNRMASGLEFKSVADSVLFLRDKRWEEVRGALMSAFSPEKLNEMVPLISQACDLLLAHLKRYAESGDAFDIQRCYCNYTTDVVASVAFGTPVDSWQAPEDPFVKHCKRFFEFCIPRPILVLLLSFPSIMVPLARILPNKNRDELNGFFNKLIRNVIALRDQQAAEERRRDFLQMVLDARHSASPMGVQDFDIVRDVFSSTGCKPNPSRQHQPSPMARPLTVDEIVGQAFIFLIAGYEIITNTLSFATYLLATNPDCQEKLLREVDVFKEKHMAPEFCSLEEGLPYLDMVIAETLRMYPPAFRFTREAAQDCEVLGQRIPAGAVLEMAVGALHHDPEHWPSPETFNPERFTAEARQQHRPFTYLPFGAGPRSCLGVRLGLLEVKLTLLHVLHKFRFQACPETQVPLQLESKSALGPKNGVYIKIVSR
Briefly: in vitro inhibition of thromboxane synthetase (TxB2/PGF2 α+β ratio from 14C-arachidonic acid). In kind it is biochemical. As to conditions: 30 minutes incubation. Here is the method: Res. Comm. 74, 1432 (1977); the testing procedure is as follows:
^14 C-Arachidonic acid is incubated with an enzyme preparation consisting of solubilized and partially purified prostaglandin cyclo-oxygenase from sheep seminal vesicles and a crude microsomal preparation of thromboxane synthetase from lysed human platelets. The test compound (dissolved in buffer, or if necessary, in a small amount of ethanol) is added to the incubation medium. At the end of the incubation period (30 minutes), Prostaglandin E2 (PGE2) is reduced to a mixture of Prostaglandin F2 α and F2 β [PGF2 (α+β)] by addition of sodium borohydride. The radioactive products and excess substrate are extracted into ethyl acetate; the extract is evaporated to dryness; the residue is dissolved in acetone, spotted on thin-layer plates and chromatographed in the solvent system toluene: acetone: glacial acetic acid (100 volumes: 100 volumes: 3 volumes). The radioactive zones are located; those corresponding to Thromboxane B2 (TxB2) and PGF2 α+β are transferred to liquid scintillation vials and counted. The ratio of counts for TxB2 /PGF2 α+β is calculated for each concentration of test compound and IC50 values are determined graphically as the concentration of test compound at which the ratio of TxB2 /PGF2 α+β is reduced to 50% of the control value.

The test system of the next test is thromboxane B2. Briefly: in vivo reduction of plasma thromboxane B2 in rats after ionophore A23187. As to conditions: rat, oral dose of 5 mg/Kg or lower; ionophore A23187 0.5 mg/kg i.v. two hours after dosing. Here is the method:
(§1) The inhibition of the synthesis and the reduction of plasma levels of thromboxane is determined in vivo or administration to rats in the following manner (as adapted from the procedures described by Tai et al. in Anal. Biochem. 87:343, 1978 and by Salmon in Prostaglandins 15:383, 1978):
(§2) Rats are dosed with vehicle or test drug and injected intravenously with ionophore A23187 (0.5 mg/kg) two hours later. Blood is collected for analysis 2 minutes after the ionophore injection. A single aliquot of each plasma sample is assayed for thromboxane B2 and another aliquot for 6-keto-PGF1 α (the stable metabolite of prostacyclin, by radioimmunoassay.

For a further test, the system named is 6-keto-PGF1 α. Briefly: in vivo plasma level of 6-keto-PGF1 α (prostacyclin metabolite) in rats after ionophore A23187. The note with it: rat; ionophore A23187 0.5 mg/kg i.v. two hours after dosing. As to the method: as §1, §2

Each structure is given as a SMILES string.

The record followed here is patent US4470986A, “Certain imidazo (1,5-A) pyridine aliphatic carboxylic acid derivatives and their use as selective thromboxane inhibitors” (Ciba-Geigy Corporation, priority 1982, dated 1984).

Take `c1cc(CCCCc2nnn[nH]2)n2cncc2c1` [5-[4-(5-tetrazolyl)butyl]-imidazo[1,5-a]pyridine]: the IC50 at thromboxane synthetase was about 0.01 µM. In the test on thromboxane B2, the “reduction of the plasma concentration of thromboxane B2” value is listed as “over 50%”. Besides, the “increase in the plasma level of the prostacyclin metabolite 6-keto-PGF1 α” value in the test on 6-keto-PGF1 α is listed as “significant increase”.
With `O=C(CCCCCc1cccc2cncn12)NO` [5-[5-(hydroxycarbamoyl)pentyl]-imidazo[1,5-a]-pyridine], at thromboxane synthetase, the IC50 was about 0.3 µM.
The same measure, in the same setting: under `O=C(O)CCCCCc1c(OCc2ccccc2)ccc2cncn12` [6-benzyloxy-5-(5-carboxypentyl)imidazo[1,5-a]pyridine] stands about 0.003 µM.

By IC50 is commonly meant the concentration at which inhibition is half-maximal.
